Source: patent US10786505B2, “Administration of NEDD8-activating enzyme inhibitor and chemotherapeutic agents” (Millennium Pharmaceuticals, Inc., priority 2013, dated 2020)

Columns and labels:
Format in all cases: in vivo, mice
[1] = tested on: NCI-H69 xenograft model; assay: Combination of cisplatin and MLN4924 in NCI-H69 xenograft model
Protocol: (§1) NCI-H69 or NCI-H82 small cell lung tumor fragments (30- to 40-mg) are implanted into the subcutaneous space in the area of the right flank of NCr nu/nu mice (7-10 weeks, Charles River Laboratories, Inc, Frederick Md. or Wilmington, Mass.) using a 12-gauge trocar.
(§2) Tumors are measured twice weekly using a vernier caliper. Tumor volumes are calculated using standard procedures (0.5×(length×width^2)). […] Tumor size and body weight are measured approximately twice a week for the duration of the study. Mice are euthanized when their tumor volume reached 10% of their body weight, or when the average tumor volume of a treatment or control group reached approximately 2000 mm^3. Tumor growth continued to be monitored after the dosing period in some studies. Average tumor volume is reported as a function of time for selected groups of selected studies in Figures A, B, and C.
(§3) Measurements from day 0 to 18, 21 or 22 are analyzed as specified in Tables 4-9. All tumor volumes have a value of 1 added to them before log10 transformation. For each animal, the log tumor volume at day 0 is subtracted from the log tumor volume on the subsequent days. This difference vs. time is used to calculate an area under the curve (AUC) for each animal using the trapezoid rule. […] The synergy score for the combination of agents A and B is defined as 100*(mean(AUCAB)−mean(AUCA)−mean(AUCB)+mean(AUCctl))/mean(AUCctl): where AUCAB, AUCA, AUCB, and AUCctl are the AUC values for animals in the combination group, the A group, the B group, and the control group, respectively. The standard error of the synergy score is computed based on the variation in the AUC values among the animals. […] If the P-value is above 0.05, then the combination is considered to be additive. If the P-value is below 0.05, and the synergy score is less than zero, then the combination is considered to be synergistic. […] Otherwise, the combination is classified as antagonistic.

[2] = tested on: PHTX02B breast xenograft model; assay: Combination of docetaxel and MLN4924 in PHTX02B xenograft model; conditions: for average tumor volume day 21: PHTX02B xenograft
Text: The PHTX02B breast xenograft model was established from a patient-derived tumor collected during surgery from a person with invasive ductal carcinoma classified as triple negative breast cancer (ER−/PR−/Her2−) by IHC. PHTX02B tumor fragments (approximately 2×2×3 mm^3) are implanted into the subcutaneous space in the right dorsal flank of female SCID-NOD mice (age 5-7 weeks, Jackson Laboratory, Bar Harbor, Me.) using a 13-gauge trocar.
Docetaxel (Henry Schein, Inc., Pittsburgh Pa., Qilu Pharmaceutical Co., Ltd., Jinan, Shandong, China, and Sanofi-Aventis) is formulated in 0.9% saline and administered by intravenous injection (IV) once weekly (QW) at 5 mg/kg or 10 mg/kg.
as §2, §3

[3] = tested on: NCI-H69 xenograft model; assay: Combination of carboplatin and MLN4924 in NCI-H69 xenograft model
Protocol: as §1
Carboplatin (CARBOplatin Injection, Hospira, Inc., Qilu Pharmaceutical Co., Ltd. Jinan, Shandong, China, and Teva Gry-Pharma GmbH, Ulm, Germany) is formulated in 0.9% saline and administered by IP injection once weekly (QW) at 50 mg/kg. The once weekly schedule is also described as every 7 days (Q7D).
as §2, §3

## NS(=O)(=O)OC[C@@H]1C[C@@H](n2ccc3c(N[C@H]4CCc5ccccc54)ncnc32)C[C@@H]1O [MLN4924, ((1S,2S,4R)-4-(4-((1S)-2,3-dihydro-1H-inden-1-ylamino)-7H-pyrrolo[2,3-d]-pyrimidin-7-yl)-2-hydroxycyclopentyl)methyl sulfamate]
[1]; 45 mg/kg MLN4924 BID Q3Dx2/week SC
  average tumor volume day 22: 438.5 mm^3
[1]; 60 mg/kg MLN4924 BID Q2Dx3/week SC
  average tumor volume day 22: 475.4 mm^3
[2]; PHTX02B breast xenograft, FIG. 1, MLN4924 SC 60 mg/kg BID 5 days on/5 days off, docetaxel 5 mg/kg IV QW, single agents or their combination
  tumor growth during the treatment period (in words): inhibited tumor growth compared to the control vehicle group
[2]; 30 mg/kg MLN4924 BID 5 on/5 off SC
  average tumor volume day 21: 1110.9 mm^3
[2]; 30 mg/kg MLN4924 BID SC
  average tumor volume day 21: 894.4 mm^3
[2]; 60 mg/kg MLN4924 BID 5 on/5 off SC
  average tumor volume day 21: 532.2 mm^3
[3]; 60 mg/kg MLN4924 BID Q3D x 2/week SC
  average tumor volume day 21: 597.1 mm^3
[3]; 120 mg/kg MLN4924 BID Q3D x 2/week SC
  average tumor volume day 21: 415.2 mm^3
[3]; FIG. 3, MLN4924 SC 120 mg/kg BID Q3Dx2/week, carboplatin 50 mg/kg IP QW, single agents or their combination
  tumor growth during the treatment period (in words): inhibited tumor growth compared to the control vehicle group
